The values below come from article PMC6792352, “Limited Chemical Structural Diversity Found to Modulate Thyroid Hormone Receptor in the Tox21 Chemical Library” (Environmental Health Perspectives, 2019).

Each structure is given as a SMILES string. Counter-ions that a name gives are not always drawn.

The first data set is described as follows: in vitro. The settings on record: rat, gh3-tre-luc cells, AC50 (uM) modified / 1000.
As to `CCCCCCCCCC(=O)OCC` [Ethyl decanoate], the cytotoxic concentration (CC50) (usually the concentration giving 50% cytotoxicity) at 24 h was over 90 µM.

As for `CCCCCCCCCCCC(=O)OCC` [Ethyl dodecanoate], the CC50 at 24 h is over 90 µM.

Compound `CCCCCCC(=O)OCC` [Ethyl heptanoate] registered a CC50 at 24 h of over 90 µM.

Compound `CCCCCCCCCCCCCCCC(=O)OCC` [Ethyl hexadecanoate] registered a CC50 at 24 h of over 90 µM.

Take `CCCCCC(=O)OCC` [Ethyl hexanoate]: the CC50 at 24 h was over 90 µM.

In turn, `CCOC(=O)CCc1ccccc1` [Ethyl hydrocinnamate] gave a CC50 at 24 h of over 90 µM.

The compound `CCOC(=O)CC(C)C` [Ethyl isovalerate] displayed a CC50 at 24 h of over 90 µM.

In turn, `CCOC(=O)C(C)O` (stereo not drawn) [Ethyl lactate] gave a CC50 at 24 h of over 90 µM.

In turn, `CCOC(=O)CCC(C)=O` [Ethyl levulinate] had a CC50 at 24 h of over 90 µM.

In the case of `CCCCC/C=C/C/C=C/CCCCCCCC(=O)OCC` [Ethyl linoleate], the cytotoxic concentration (CC50) at 24 h was over 50 µM.

`CC/C=C\C/C=C\C/C=C\CCCCCCCC(=O)OCC` [Ethyl linolenate] had a CC50 at 24 h of over 90 µM.

`C=C(C)C(=O)OCC` [Ethyl methacrylate] came in with a CC50 at 24 h of over 100 µM.

Compound `CCOS(C)(=O)=O` [Ethyl methanesulfonate] showed a cytotoxic concentration (CC50) at 24 h of over 90 µM.

`CCOC(=O)c1cccnc1` [Ethyl nicotinate] showed a CC50 at 24 h of over 50 µM.

`CCCCCCCCC(=O)OCC` [Ethyl nonanoate] registered a 50% cytotoxic concentration (CC50) at 24 h of over 90 µM.

In turn, `CCCCCCCCSCC` [Ethyl octyl sulfide] showed a 50% cytotoxic concentration (CC50) at 24 h of over 90 µM.

Compound `CCCCCCCC/C=C\CCCCCCCC(=O)OCC` [Ethyl oleate] yielded a half-maximal cytotoxic concentration (CC50) at 24 h of over 90 µM.

With `CCOC(=O)COC(=O)c1ccccc1C(=O)OCC` [Ethyl phthalyl ethyl glycolate], the cytotoxic concentration (CC50) at 24 h was over 90 µM.

`CCOC(=O)CC` [Ethyl propionate] yielded a CC50 at 24 h of over 90 µM.

`CCOC(=O)c1ccccc1O` [Ethyl salicylate] had a CC50 at 24 h of over 50 µM.

`CCCCCCCCCCCCCC(=O)OCC` [Ethyl tetradecanoate] came in with a cytotoxic concentration (CC50) at 24 h of over 90 µM.

For `C=CCCCCCCCCC(=O)OCC` [Ethyl undec-10-enoate], the CC50 at 24 h is over 90 µM.

`C=CC(=O)CC` [Ethyl vinyl ketone]: the CC50 at 24 h was over 90 µM.

On to `CCOC(=O)C(C)C(C)=O` (stereo not drawn) [Ethyl-2-methyl acetoacetate], for which the 50% cytotoxic concentration (CC50) at 24 h is over 90 µM.

In the case of `CCc1ccccc1` [Ethylbenzene], the CC50 at 24 h was over 90 µM.

Consider `CCOCCOCC` [Ethylene glycol diethyl ether], for which the cytotoxic concentration (CC50) at 24 h was over 100 µM.

With `C(COCC1CO1)OCC1CO1` (stereo not drawn) [Ethylene glycol diglycidyl ether], the CC50 at 24 h is over 90 µM.

As for `C=C(C)C(=O)OCCOC(=O)C(=C)C` [Ethylene glycol dimethacrylate], the CC50 at 24 h is over 90 µM.

With `COCCOC` [Ethylene glycol dimethyl ether], the CC50 at 24 h is over 90 µM.

For the compound `C=C(C)C(=O)OCCOc1ccccc1` [Ethylene glycol phenyl ether methacrylate], the half-maximal cytotoxic concentration (CC50) at 24 h was over 90 µM.

`OCCO` [Ethylene glycol] displayed a cytotoxic concentration (CC50) at 24 h of over 100 µM.

With `NCCN` [Ethylenediamine], the cytotoxic concentration (CC50) at 24 h is over 90 µM.

`CC[C@]1(O)CC[C@H]2[C@@H]3CCC4=CCCC[C@@H]4[C@H]3CC[C@@]21C` [Ethylestrenol] displayed a CC50 at 24 h of over 50 µM.

The compound `CCOC(=O)c1ccc(O)cc1` [Ethylparaben] had a cytotoxic concentration (CC50) at 24 h of over 90 µM.

`CCC(C(=O)NC(N)=O)c1ccccc1` (stereo not drawn) [Ethylphenylacetylurea] yielded a cytotoxic concentration (CC50) at 24 h of over 90 µM.

`CCOC(=O)C(C)(C)C` [Ethylpivalate] registered a CC50 at 24 h of over 90 µM.

Consider `CC[Si](OC(C)=O)(OC(C)=O)OC(C)=O` [Ethyltriacetoxysilane], for which the CC50 at 24 h is over 90 µM.

With `CCO[Si](CC)(OCC)OCC` [Ethyltriethoxysilane], the CC50 at 24 h was over 90 µM.

As to `CCCN(CC)C(CC)C(=O)Nc1c(C)cccc1C` (stereo not drawn) [Etidocaine], the CC50 at 24 h is over 50 µM.

In turn, `CC(O)(P(=O)(O)O)P(=O)(O)O` [Etidronic acid] came in with a CC50 at 24 h of over 90 µM.

For `CCc1cccc(CC)c1NC(=O)CN(CC(=O)O)CC(=O)O` [Etifenin], the half-maximal cytotoxic concentration (CC50) at 24 h is over 20 µM.

The compound `CCNCC(O)c1cccc(O)c1` (stereo not drawn) [Etilefrine hydrochloride] displayed a CC50 at 24 h of over 20 µM.

Regarding `CCC(C(N)=O)N1CCCC1=O` (stereo not drawn) [Etiracetam], the cytotoxic concentration (CC50) at 24 h was over 50 µM.

As for `CCc1cccc2c3c([nH]c12)C(CC)(CC(=O)O)OCC3` (stereo not drawn) [Etodolac], the 50% cytotoxic concentration (CC50) at 24 h was over 90 µM.

Compound `O=C(OCCOCCO)c1ccccc1Nc1cccc(C(F)(F)F)c1` [Etofenamate] registered a CC50 at 24 h of over 20 µM.

On to `CCOc1ccc(C(C)(C)COCc2cccc(Oc3ccccc3)c2)cc1` [Etofenprox], for which the CC50 at 24 h was over 90 µM.

`Cn1c(=O)c2c(ncn2CCOC(=O)C(C)(C)Oc2ccc(Cl)cc2)n(C)c1=O` [Etofylline clofibrate] came in with a cytotoxic concentration (CC50) at 24 h of over 50 µM.

For the compound `Cn1c(=O)c2c(ncn2CCO)n(C)c1=O` [Etofylline], the 50% cytotoxic concentration (CC50) at 24 h was over 50 µM.

Regarding `CCN1C(=O)c2ccccc2C1Nc1ccc(OCCN2CCCCC2)cc1` (stereo not drawn) [Etomidoline], the half-maximal cytotoxic concentration (CC50) at 24 h was over 50 µM.

Compound `C#C[C@]1(O)CC[C@H]2[C@@H]3CCC4=CC(=O)CC[C@@H]4[C@H]3C(=C)C[C@@]21CC` [Etonogestrel] returned a 50% cytotoxic concentration (CC50) at 24 h of over 50 µM.

`COc1cc([C@@H]2c3cc4c(cc3[C@@H](O[C@@H]3O[C@@H]5CO[C@@H](C)O[C@H]5[C@H](O)[C@H]3O)[C@H]3COC(=O)[C@H]23)OCO4)cc(OC)c1OP(=O)(O)O` [Etoposide phosphate] registered a half-maximal cytotoxic concentration (CC50) at 24 h of over 50 µM.

`Cc1ccc(-c2ncc(Cl)cc2-c2ccc(S(C)(=O)=O)cc2)cn1` [Etoricoxib] yielded a CC50 at 24 h of over 50 µM.

In turn, `CCOc1cc(C(C)(C)C)ccc1C1COC(c2c(F)cccc2F)=N1` (stereo not drawn) [Etoxazole] registered a 50% cytotoxic concentration (CC50) at 24 h of 17.5 µM.

In turn, `CCOC(=O)/C=C(C)/C=C/C=C(C)/C=C/c1c(C)cc(OC)c(C)c1C` [Etretinate] came in with a CC50 at 24 h of over 50 µM.

`CCc1ccc2c(c1)N(CC(C)CN(C)C)c1ccccc1S2` (stereo not drawn) [Etymemazine hydrochloride] came in with a CC50 at 24 h of 9.18 µM.

As for `C=CCc1ccc(O)c(OC)c1` [Eugenol], the CC50 at 24 h was over 90 µM.

Regarding `CO[C@H]1C[C@@H]2CC[C@@H](C)[C@@](O)(O2)C(=O)C(=O)N2CCCC[C@H]2C(=O)O[C@H]([C@H](C)C[C@@H]2CC[C@@H](OCCO)[C@H](OC)C2)CC(=O)[C@H](C)/C=C(\C)[C@@H](O)[C@@H](OC)C(=O)[C@H](C)C[C@H](C)/C=C/C=C/C=C/1C` [Everolimus], the midpoint of cytotoxicity, the CC50 at 24 h, lay at 0.00998 µM.

`CCCCCCOc1ccccc1C(N)=O` [Exalamide] registered a CC50 at 24 h of over 50 µM.

For the compound `C=C1C[C@@H]2[C@H](CC[C@]3(C)C(=O)CC[C@@H]23)[C@@]2(C)C=CC(=O)C=C12` [Exemestane], the CC50 at 24 h was over 50 µM.

Turning to `O=C1[C@H](CC[C@H](O)c2ccc(F)cc2)[C@@H](c2ccc(O)cc2)N1c1ccc(F)cc1` [Ezetimibe], the CC50 at 24 h was over 50 µM.

In turn, `CCN(Cc1cccc(S(=O)(=O)O)c1)c1ccc(C(=C2C=CC(=[N+](CC)Cc3cccc(S(=O)(=O)O)c3)C=C2)c2ccccc2S(=O)(=O)[O-])cc1` [FD&C Blue No. 1] displayed a CC50 at 24 h of 50.7 µM.

The compound `CCN(Cc1cccc(S(=O)(=O)O)c1)c1ccc(C(=C2C=CC(=[N+](CC)Cc3cccc(S(=O)(=O)[O-])c3)C=C2)c2ccccc2)cc1` [FD&C Green No. 1] displayed a CC50 at 24 h of over 70 µM.

Consider `CCN(Cc1cccc(S(=O)(=O)O)c1)c1ccc(C(=C2C=CC(=[N+](CC)Cc3cccc(S(=O)(=O)O)c3)C=C2)c2ccc(O)cc2S(=O)(=O)[O-])cc1` [FD&C Green No. 3], for which the CC50 at 24 h is 41.3 µM.

`Cc1cc(C)c(S(=O)(=O)O)cc1N=Nc1cc(S(=O)(=O)O)c2ccccc2c1O` [FD&C Red 4] showed a cytotoxic concentration (CC50) at 24 h of 33.6 µM.

The data set is the same for the next values; noted with them: rat, gh3-tre-luc cells, AC50 (uM) modified / 1000, Tox21_110001=Tox21_110628; viability, 1 nM T3 present, 24 h.
In the case of `CCOC(=O)c1cncn1[C@H](C)c1ccccc1` [Etomidate], the CC50 at 24 h is over 20 µM.

Staying with this data set, now noted: rat, gh3-tre-luc cells, AC50 (uM) modified / 1000, Tox21_110001=Tox21_112368; viability, 1 nM T3 present, 24 h.
As to `CCON=O` [Ethyl nitrite], the CC50 at 24 h was over 50 µM.

Still in this data set, the particulars now being: rat, gh3-tre-luc cells, AC50 (uM) modified / 1000, Tox21_110001=Tox21_112610; viability, 1 nM T3 present, 24 h.
In turn, `CCOc1ccc2c3c1O[C@H]1[C@@H](O)C=C[C@H]4[C@@H](C2)N(C)CC[C@@]341` [Ethylmorphine] had a CC50 at 24 h of over 50 µM.

The same data set, now with this note: rat, gh3-tre-luc cells, AC50 (uM) modified / 1000, Tox21_110001=Tox21_112618; viability, 1 nM T3 present, 24 h.
The compound `CCC(N)Cc1c[nH]c2ccccc12` (stereo not drawn) [Etryptamine] came in with a half-maximal cytotoxic concentration (CC50) at 24 h of over 50 µM.

The data set is the same for the next values; noted with them: rat, gh3-tre-luc cells, AC50 (uM) modified / 1000, Tox21_110001=Tox21_112820; viability, 1 nM T3 present, 24 h.
The compound `CCC(N)Cc1c[nH]c2ccccc12` (stereo not drawn) [Etryptamine acetate] showed a CC50 at 24 h of over 100 µM.

The data set is the same for the next values; noted with them: rat, gh3-tre-luc cells, AC50 (uM) modified / 1000, Tox21_110001=Tox21_112931; viability, 1 nM T3 present, 24 h.
Compound `CCc1cc2c(s1)-n1c(C)nnc1CN=C2c1ccccc1Cl` [Etizolam] showed a 50% cytotoxic concentration (CC50) at 24 h of over 50 µM.

Staying with this data set, now noted: rat, gh3-tre-luc cells, AC50 (uM) modified / 1000, Tox21_110001=Tox21_200578; viability, 1 nM T3 present, 24 h.
With `CCN` [Ethylammonium nitrate], the CC50 at 24 h is over 90 µM.

The data set is the same for the next values; noted with them: rat, gh3-tre-luc cells, AC50 (uM) modified / 1000, Tox21_110001=Tox21_201315; viability, 1 nM T3 present, 24 h.
On to `CCOC(=O)C1OC1(C)c1ccccc1` (stereo not drawn) [Ethyl methylphenylglycidate], for which the CC50 at 24 h is over 90 µM.

Staying with this data set, now noted: rat, gh3-tre-luc cells, AC50 (uM) modified / 1000, Tox21_110001=Tox21_202917; viability, 1 nM T3 present, 24 h.
As to `C1CS1` [Ethylene sulfide], the CC50 at 24 h was over 90 µM.

The same data set, now with this note: rat, gh3-tre-luc cells, AC50 (uM) modified / 1000, Tox21_110001=Tox21_300810; viability, 1 nM T3 present, 24 h.
For `CCOC(=O)Cc1ccccc1` [Ethyl phenylacetate], the half-maximal cytotoxic concentration (CC50) at 24 h is over 90 µM.

Still in this data set, the particulars now being: rat, gh3-tre-luc cells, AC50 (uM) modified / 1000, Tox21_110001=Tox21_301203; viability, 1 nM T3 present, 24 h.
`C=CCc1ccc(OC(=O)Cc2ccccc2)c(OC)c1` [Eugenyl phenylacetate] yielded a half-maximal cytotoxic concentration (CC50) at 24 h of over 90 µM.
